# Data as given in ChEMBL document CHEMBL5604062, “ASAP - ZIKV NS2B-NS3 protease fluorescence dose response” (2024).
# Where “and” joins values, the source holds several entries; their conditions need not be identical. Identical values can stand only once. Residues, ends and D or L forms follow the SMILES beside them. *: point of attachment. pNA = O=[N+]([O-])c1ccc(N*)cc1
# Molecular target: Nonstructural protein 3 (Zika virus, UniProt A0A024AXB9)
# Experiment: Functional biochemical assay to identify treatments for viral infectious disease that targets Zika NS2B-NS3 protease. Utilizing a direct enzyme activity measurement method, reading the fluorescence intensity is used to characterize the relative potency of inhibitors as IC50.
# Design: species or system PRVABC59
# Chain of Nonstructural protein 3 (A0A024AXB9 whole entry): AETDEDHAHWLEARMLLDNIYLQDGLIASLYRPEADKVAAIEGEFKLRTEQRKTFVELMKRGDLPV
row,Compound,IC50
1,CC(C)[C@@H]1[C@H](C(=O)Nc2cccc(CN)c2)CCN1C(=O)OCc1ccccc1,> 99.5 µM
2,COC(=O)CNC(=O)[C@H](Nc1ccc2c(c1)CNC2)c1cc(Cl)cc(C2CC2)c1,0.097 µM and 0.073 µM
3,Cc1ccc([C@@H](NC(=O)OCc2ccccc2)C(=O)Nc2cccc(CN)c2)cc1C(F)(F)F,48.7 µM
4,NCc1cccc(NC(=O)c2cc(Cl)cc(NC(=O)NCc3ccccc3)c2)c1,2.1 µM
5,CC1(C)C(=O)N[C@H]2CCCN(C(=O)Nc3ccc4c(c3)CNC4)[C@H]21,> 25 µM
6,CCc1cc2c(cc1NC(=O)c1cc(F)cc3[nH]ncc13)CNC2,0.14 µM
7,COc1cnccc1NC(=O)c1cccn(CC(C)C)c1=O,> 99.5 µM
8,CC(C)(C)OC(=O)NCc1cccc(NC(=O)[C@@H](NC(=O)OCc2ccccc2)c2cccc(O)c2)c1,> 99.5 µM
9,CC(C)NC(=O)[C@H](Nc1ccc2c(c1)CNC2)c1cc(Cl)cc2[nH]ncc12,0.086 µM and 0.054 µM and 0.124 µM and 0.138 µM and 0.089 µM
10,O=C(O)c1cc(Cl)ccc1NS(=O)(=O)c1ccc(-c2ccc(F)cc2)cc1,32.9 µM
11,c1ccc2c(CN3CCC(n4cccn4)CC3)c[nH]c2c1,> 99.5 µM
12,O=C(/C=C/c1ccccc1CN1CCCCC1)C(=O)N1CCOCC1,> 198 µM
13,c1ccc2c(CNCc3ccc(-c4cscn4)cc3)c[nH]c2c1,81 µM
14,N#C[C@]1(Nc2ccc3c(c2)CNC3)C(=O)Nc2ccccc21,27.4 µM
15,O=C1OCc2ccc(NC(=O)c3cccc4c3CNC4)cc21,> 25 µM
16,Cc1c(C(=O)Nc2cccc([C@H]3CCOC3)c2)cc(C2CC2)n1C,> 25 µM
17,NCc1ccc2c(c1)[C@H](N1CCCC1=O)C[C@H](c1cc(Cl)cc(NC(=O)OCc3ccccc3)c1)N2,26.8 µM
18,O=C(O)c1cc(Cl)ccc1S(=O)(=O)Nc1ccc(S(=O)(=O)Nc2ccccc2)cc1,> 99.5 µM
19,CC(=O)N(c1ccc2c(c1)CNC2)[C@H](C(=O)NCC(F)F)c1cc(Cl)cc(C2CC2)c1,1.93 µM
20,O=C(Nc1cc(-c2cccnc2)ccn1)c1cnn2c1CCC2,> 25 µM
21,CCn1c(=O)c(N2CC[C@@H](Cc3ccncc3)C2)nc2ccccc21,> 99.5 µM
22,COc1ccc(-c2cccc([C@H](NC(=O)OCc3ccccc3)C(=O)Nc3cccc(CN)c3)c2)c(C#N)c1,11.2 µM
23,NC1(c2cccc(NC(=O)c3cc(Cl)cc(NC(=O)OCc4ccccc4)c3)c2)CC1,> 99.5 µM
24,CCn1cc(S(=O)(=O)N[C@@H](C(=O)Nc2cccc(CN)c2)c2ccc(OCc3ccccc3)cc2)cn1,> 99.5 µM
25,Cc1[nH]c2ccc(Br)cc2c1CC(=O)Nc1cccc(CN)c1,> 99.5 µM
26,O=C(Nc1ccc2c(c1)CNC2)c1ccc2ncsc2c1,0.997 µM

row,Compound,IC50
1,O=C(Nc1ccc2c(c1)CNC2)c1cccc(O)c1,3.94 µM
2,Cc1cc(CN(C)C)cc(NC(=O)[C@H](NC(=O)OCc2ccccc2)c2ccc(OCc3ccccc3)cc2)c1,> 99.5 µM
3,CS(=O)(=O)N(c1cc(Cl)cc(C(=O)Nc2cccc(CN)c2)c1)S(C)(=O)=O,> 99.5 µM
4,CNC(=O)c1cc(Cl)c(OC)cc1NS(=O)(=O)c1ccc(Oc2ccccc2Cl)cc1,53.4 µM
5,CCN1C[C@H]2C[C@@H]1CN2c1nc2ccccc2n(CC)c1=O,> 99.5 µM
6,N#C[C@H](Nc1cc(Cl)cc(NC(=O)OCc2ccccc2)c1)c1ccc(-c2nn[nH]n2)cc1,16.8 µM
7,CNC(=O)[C@H](Nc1ccc2c(c1)CNC2)c1cc(Cl)cc2c1OCC2,0.256 µM
8,NCc1cccc(NC(=O)[C@@H](NC(=O)OCc2ccccc2)c2cccc(F)c2F)c1,> 99.5 µM
9,COCCOc1ccc(Cl)cc1C(=O)Nc1cccc(CN)c1,77.5 µM
10,COc1cn(-c2cccc(C(F)(F)F)c2)nc1C(=O)Nc1cccc(CN)c1,> 99.5 µM
11,Cc1ccc2cccc(NC(=O)C3CCN(c4ccc(C=O)cc4)CC3)c2n1,30.3 µM
12,N=C(N)NCCc1ccc(NC(=O)C(=O)/C=C/c2ccc(N)cc2)cc1,36.7 µM
13,FC1(c2cccnc2)CN(Cc2c[nH]c3ccccc23)C1,> 99.5 µM
14,O=C(O)CCc1ccc(NC(=O)c2cc(Cl)cc(C3CC3)c2)cc1,> 99.5 µM
15,NC(=O)c1ccccc1NS(=O)(=O)c1ccc(Oc2ccccc2Cl)cc1,> 99.5 µM
16,NCc1cccc(NC(=O)C2(CNC(=O)OCc3ccccc3)CCCC2)c1,> 99.5 µM
17,O=C(Nc1cc(-c2cccnc2)ccn1)c1cc(C2CC2)on1,> 25 µM
18,O=C(Nc1cc(Cl)cc(-c2ccc3nc(C(=O)O)ncc3c2)c1)OCc1ccccc1,24.7 µM
19,O=C1Cc2c(cccc2C(=O)NC2(c3ccc(O)nc3)CC2)N1,> 25 µM
20,C=Cc1cc2c(cc1NC(=O)c1cc(F)cc3[nH]ncc13)CNC2,0.045 µM and 0.028 µM
21,O=C(Nc1ccc2c(c1)CNC2)N1CCC[C@H]1c1cc(C(F)(F)F)no1,> 25 µM
22,O=C(Nc1ccc2c(c1)CNC2)c1cc(Br)cc2[nH]c([C@H]3CCCO3)nc12,0.274 µM
23,Clc1cc(/C=C/c2cccc(-c3nn[nH]n3)c2)c2cn[nH]c2c1,> 99.5 µM
24,CN(C)C(=O)[C@@H](NC(=O)OCc1ccccc1)c1ccc(OCc2ccccc2)cc1,> 99.5 µM
25,COC(=O)N1CCc2cc(NC(=O)c3cc(C4CC4)n(C)c3C)ccc21,> 25 µM
26,Cn1nccc1C1CCN(Cc2c[nH]c3ccccc23)CC1,> 99.5 µM

row,Compound,IC50
1,NCc1cccc(NC(=O)[C@@H](NC(=O)OCc2ccccc2)c2cccc(Br)c2)c1,64.4 µM
2,O=C(Nc1ccc2c(c1)CNC2)c1cc(F)cc(C2=CCOCC2)c1,0.362 µM
3,NCc1cc(C(=O)O)cc([C@@H]2C[C@H]2c2cc(Cl)cc(NC(=O)OCc3ccccc3)c2)c1,> 99.5 µM
4,Cn1ncc2c(C(=O)Nc3ccc4c(c3)CNC4)cc(-c3cccnc3)nc21,> 25 µM
5,O=C(NCC1CC1)[C@H]1CCCC[C@H]1NS(=O)(=O)c1ccc(Oc2ccccc2Cl)cc1,> 99.5 µM
6,O=C(Nc1cc([C@H]2CCOC2)ccn1)c1cc(F)cc2[nH]ccc12,> 25 µM
7,O=C(Nc1ccc2c(c1)CNC2)c1cc(F)cc2[nH]c(-c3ccc(F)cc3O)nc12,0.039 µM and 0.024 µM
8,O=C(Nc1cc(Cl)cc(C(=O)Nc2n[nH]c3c2CNC3)c1)OCc1ccccc1,40.3 µM
9,O=C(Nc1ccccc1)Oc1ccccc1 [PHENYL PHENYLCARBAMATE],> 100 µM
10,N=C(N)NCCc1cccc(B(O)O)c1,> 100 µM
11,COCCc1ccnc(NC(=O)c2cc(C3CC3)n(C)c2C)c1,> 25 µM
12,CNC(=O)[C@H](Nc1cc(Cl)cc(C2CC2)c1)c1ccc(-c2nn[nH]n2)cc1,> 99.5 µM
13,NCc1cccc(NC(=O)[C@@H](NC(=O)OCc2ccccc2)c2ccc(-c3cccnc3F)cc2)c1,45.1 µM
14,Cc1nn(C)cc1-c1ccc(S(=O)(=O)Nc2ccc(Cl)cc2C(=O)O)cc1,> 99.5 µM
15,N#Cc1cc(CN)cc(NC(=O)c2cc(Cl)cc(NC(=O)OCc3ccccc3)c2)c1,10.7 µM
16,COC1CN(C(=O)c2ccnc(NC(=O)c3cc(C4CC4)n(C)c3C)c2)C1,> 25 µM
17,NCc1cccc(NC(=O)c2cc3c(F)cc(F)c(F)c3[nH]2)c1,42.4 µM
18,O=C(Nc1ccc2c(c1)CNC2)N1CC[C@H](Oc2ccc(C3CC3)cn2)C1,> 25 µM
19,O=C(Nc1ccc2c(c1)CNC2)c1ccc2c(c1)NCCO2,> 99.5 µM
20,Cc1c(C(=O)Nc2cc(-c3cccnc3)ccn2)cc(C2CC2)n1C,5.84 µM and > 25 µM
21,CCn1c(=O)c(N2CCC[C@@H]2Cc2cccs2)nc2ccccc21,> 99.5 µM
22,Cc1c(C(=O)Nc2ccc(CN)cc2)cc(C2CC2)n1C,> 99.5 µM
23,O=C(O)c1cc(Cl)ccc1S(=O)(=O)NC1CCN(S(=O)(=O)Cc2ccccc2)CC1,> 99.5 µM
24,CCn1ccnc(N2C[C@@H](OC(=O)OC)[C@H](c3c[nH]c4ccccc34)C2)c1=O,> 99.5 µM
25,O=C(Nc1ccc2c(c1)CNC2)[C@H]1CCc2ccccc21,> 99.5 µM
26,CN(C(=O)c1cc(Cl)cc(NC(=O)OCc2ccccc2)c1)c1ccc(CN)cc1,> 99.5 µM

row,Compound,IC50
1,O=C(Nc1ccc2c(c1)CNC2)c1ccc2c(Br)csc2c1,2.19 µM
2,[O-][S@@+](Cc1nc(-c2cccs2)no1)c1cccs1,> 99.5 µM
3,N[C@H]1CC[C@H](CNC(=O)[C@@H](NC(=O)OCc2ccccc2)c2ccc(OCc3ccccc3)cc2)CC1,> 99.5 µM
4,CS(=O)(=O)c1ccc(N2CCN(C(=O)C3CCN(c4ccc(C=O)cc4)CC3)CC2)c([N+](=O)[O-])c1,> 0.782 µM
5,NCc1ccc(NC(=O)[C@@H](NC(=O)OCc2ccccc2)c2ccc(OCc3ccccc3)cc2)cc1,> 99.5 µM
6,NCCc1cc(Cl)cc(C(=O)Nc2cccc(CN)c2)c1,0.33 µM
7,COC(=O)c1cc(C(=O)Nc2ccc3c(c2)CNC3)cc2[nH]ccc12,> 25 µM
8,NC1(c2cccc(NS(=O)(=O)c3ccc(Oc4ccccc4Cl)cc3)c2)CCOCC1,> 99.5 µM
9,OCc1cc(C2CCN(Cc3c[nH]c4ccccc34)CC2)no1,54.9 µM
10,O=C(Nc1ccc2c(c1)OCO2)c1cc(Cl)cc2[nH]ncc12,> 99.5 µM
11,NCc1cccc(NC(=O)[C@H](NC(=O)OCc2ccccc2)c2ccc(Br)c(F)c2)c1,64.4 µM
12,O=C1Cc2c(cccc2C(=O)Nc2cc3c(cn2)OCCO3)N1,> 25 µM
13,CCn1c(=O)c(N2C[C@@H]3[C@H](C2)[C@H]3C(=O)OC)nc2ccccc21,> 99.5 µM
14,O=C(NCC1CC1)c1cc(Cl)cc(NS(=O)(=O)c2ccc(Oc3ccccc3Cl)cc2)c1,49.9 µM
15,NC(=O)c1ccc(Cn2nnc(C=Cc3ccccc3)n2)cc1,> 99.5 µM
16,O=C(O)C[C@H](NC(=O)OCc1ccccc1)c1ccc(OCc2ccccc2)c(Br)c1,> 99.5 µM
17,CN1CCC[C@H]1COc1cccc([C@@H](NC(=O)OCc2ccccc2)C(=O)Nc2cccc(CN)c2)c1,> 99.5 µM
18,O=C(Nc1ccc2c(c1)CNC2)c1ccc(F)c2[nH]ncc12,2.65 µM
19,NCc1cccc(NC(=O)c2ccc(OCc3ccccc3)cc2)c1,> 99.5 µM
20,O=C(Nc1ccc2c(c1)CNC2)N1CCC[C@H]1Cc1cc2ccccc2o1,> 25 µM
21,NCc1cccc(NC(=O)c2cc(Cl)cc(F)c2F)c1,59.3 µM
22,CSCC[C@H](N)C(=O)N1CCC[C@H]1C(=O)Nc1ccc([N+](=O)[O-])cc1 (H-Met-Pro-pNA),> 99.5 µM
23,CCS(=O)(=O)c1ccc(Cl)cc1C(=O)Nc1ccc2c(c1)CNC2,2.52 µM
24,COc1cc(Cc2ccc3[nH]ncc3c2)nc(N2CCNCC2)n1,> 99.5 µM
25,Cn1c(COc2ccc(S(=O)(=O)Nc3ccc(Cl)cc3C(=O)O)cc2)nnc1C1CC1,> 99.5 µM
26,CN(C)Cc1cncc(NC(=O)[C@@H](NC(=O)OCc2ccccc2)c2ccc(OCc3ccccc3)cc2)c1,> 99.5 µM
